Each structure is given as a SMILES string.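 How tested: cells in 96-well plates exposed to compound for 48 hours at five concentrations. The concentration for full growth arrest is given as TGI.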

For one experiment, the system named is 786-0 renal. The experiment is described as follows: NCI tumour cell line growth inhibition, 48 h.
With `CNc1ncnc2c1ncn2C1C=CC(COS(N)(=O)=O)C1` (configuration not stated), the TGI was > 100 µM.

`COC1=C(OC)C(=O)C(Cc2c(Cl)nc3sc(C)cn23)=C(C)C1=O` showed a TGI of 38.8 µM.

`O=C(CN1CCCCC1)Nc1ccc2sc3ccccc3c(=O)c2n1` gave a TGI of 37.2 µM.

`CC(C)=CCC/C(C)=C/CC/C(C)=C/CC/C(C)=C/C=C/C=C(\C)CC/C=C(\C)CC/C=C(\C)CCC=C(C)C` yielded a TGI of 52.3 µM.

With `C=C(C)C1=CCC[C@]2(C1)N=C(OC)[C@@H](C(C)C)N=C2OC`, the TGI is > 100 µM.

`CCSc1[nH]c(NC(=S)NC(=O)c2ccccc2Cl)c(C(N)=O)c1C(N)=O`: the TGI is > 10 µM.

For `Clc1ccc(NCc2nnc(CCCCCCCCc3nnc(CNc4ccc(Cl)cc4)o3)o2)cc1`, the TGI was > 100 µM.

Consider `Cc1nc2ccccc2n1COC(Cn1ccnc1)c1ccc(Cl)cc1Cl` (configuration not stated), for which the TGI was > 100 µM.

As to `Cc1cc(=O)[nH]c(-n2[nH]c(C)c(CCO)c2=O)n1`, the TGI was > 100 µM.

Consider `COC(=O)[C@@H]1CN(C(C)=O)C(=O)N1`, for which the TGI was > 100 µM.

With `NN(CC(=O)O)CC(=O)O`, the TGI is > 100 µM.

Take `O=C([O-])C[n+]1ccccc1`: the TGI was > 100 µM.

The subject of the next experiment is ACHN renal. The experiment in a line: NCI tumour cell line growth inhibition, 48 h.
On to `CNc1ncnc2c1ncn2C1C=CC(COS(N)(=O)=O)C1` (configuration not stated), for which the TGI is > 100 µM.

`COC1=C(OC)C(=O)C(Cc2c(Cl)nc3sc(C)cn23)=C(C)C1=O` had a TGI of 40 µM.

Compound `O=C(CN1CCCCC1)Nc1ccc2sc3ccccc3c(=O)c2n1` had a TGI of 33.4 µM.

`CC(C)=CCC/C(C)=C/CC/C(C)=C/CC/C(C)=C/C=C/C=C(\C)CC/C=C(\C)CC/C=C(\C)CCC=C(C)C`: the TGI was 53 µM.

As to `C=C(C)C1=CCC[C@]2(C1)N=C(OC)[C@@H](C(C)C)N=C2OC`, the TGI was > 100 µM.

Take `Clc1ccc(NCc2nnc(CCCCCCCCc3nnc(CNc4ccc(Cl)cc4)o3)o2)cc1`: the TGI was > 100 µM.

As to `Cc1nc2ccccc2n1COC(Cn1ccnc1)c1ccc(Cl)cc1Cl` (configuration not stated), the TGI was > 100 µM.

For `Cc1cc(=O)[nH]c(-n2[nH]c(C)c(CCO)c2=O)n1`, the TGI is > 100 µM.

For `COC(=O)[C@@H]1CN(C(C)=O)C(=O)N1`, the TGI was > 100 µM.

On to `NN(CC(=O)O)CC(=O)O`, for which the TGI was > 100 µM.

Regarding `O=C([O-])C[n+]1ccccc1`, the TGI is > 100 µM.

For a further experiment, the system named is KM12 colon. The experiment in a line: NCI tumour cell line growth inhibition, 48 h.
On to `CNc1ncnc2c1ncn2C1C=CC(COS(N)(=O)=O)C1` (configuration not stated), for which the TGI was > 100 µM.

Regarding `COC1=C(OC)C(=O)C(Cc2c(Cl)nc3sc(C)cn23)=C(C)C1=O`, the TGI worked out at 27.8 µM.

As for `O=C(CN1CCCCC1)Nc1ccc2sc3ccccc3c(=O)c2n1`, the TGI is 38.7 µM.

Compound `CC(C)=CCC/C(C)=C/CC/C(C)=C/CC/C(C)=C/C=C/C=C(\C)CC/C=C(\C)CC/C=C(\C)CCC=C(C)C` showed a TGI of 63.3 µM.

Consider `C=C(C)C1=CCC[C@]2(C1)N=C(OC)[C@@H](C(C)C)N=C2OC`, for which the TGI is > 100 µM.

Regarding `CCSc1[nH]c(NC(=S)NC(=O)c2ccccc2Cl)c(C(N)=O)c1C(N)=O`, the TGI is > 10 µM.

As for `Clc1ccc(NCc2nnc(CCCCCCCCc3nnc(CNc4ccc(Cl)cc4)o3)o2)cc1`, the TGI is > 100 µM.

For `Cc1nc2ccccc2n1COC(Cn1ccnc1)c1ccc(Cl)cc1Cl` (configuration not stated), the TGI was > 100 µM.

Regarding `Cc1cc(=O)[nH]c(-n2[nH]c(C)c(CCO)c2=O)n1`, the TGI is > 100 µM.

In the case of `COC(=O)[C@@H]1CN(C(C)=O)C(=O)N1`, the TGI is > 100 µM.

Take `NN(CC(=O)O)CC(=O)O`: the TGI was > 100 µM.

For the compound `O=C([O-])C[n+]1ccccc1`, the TGI is > 100 µM.

In the next experiment the test system is MDA-MB-435. The experiment in a line: NCI tumour cell line growth inhibition, 48 h.
Regarding `CNc1ncnc2c1ncn2C1C=CC(COS(N)(=O)=O)C1` (configuration not stated), the TGI is > 100 µM.

As to `COC1=C(OC)C(=O)C(Cc2c(Cl)nc3sc(C)cn23)=C(C)C1=O`, the TGI was 35.3 µM.

`O=C(CN1CCCCC1)Nc1ccc2sc3ccccc3c(=O)c2n1` returned a TGI of 26.2 µM.

On to `CC(C)=CCC/C(C)=C/CC/C(C)=C/CC/C(C)=C/C=C/C=C(\C)CC/C=C(\C)CC/C=C(\C)CCC=C(C)C`, for which the TGI is > 100 µM.

For `C=C(C)C1=CCC[C@]2(C1)N=C(OC)[C@@H](C(C)C)N=C2OC`, the TGI was > 100 µM.

For the compound `CCSc1[nH]c(NC(=S)NC(=O)c2ccccc2Cl)c(C(N)=O)c1C(N)=O`, the TGI is > 10 µM.

As for `Clc1ccc(NCc2nnc(CCCCCCCCc3nnc(CNc4ccc(Cl)cc4)o3)o2)cc1`, the TGI is > 100 µM.

As to `Cc1nc2ccccc2n1COC(Cn1ccnc1)c1ccc(Cl)cc1Cl` (configuration not stated), the TGI is > 100 µM.

With `Cc1cc(=O)[nH]c(-n2[nH]c(C)c(CCO)c2=O)n1`, the TGI was > 100 µM.

As to `COC(=O)[C@@H]1CN(C(C)=O)C(=O)N1`, the TGI was > 100 µM.

Turning to `NN(CC(=O)O)CC(=O)O`, the TGI is > 100 µM.

Regarding `O=C([O-])C[n+]1ccccc1`, the TGI was > 100 µM.

In a further experiment the test system is MDA-N. The experiment is described as follows: NCI tumour cell line growth inhibition, 48 h.
As for `CNc1ncnc2c1ncn2C1C=CC(COS(N)(=O)=O)C1` (configuration not stated), the TGI is > 100 µM.

As to `COC1=C(OC)C(=O)C(Cc2c(Cl)nc3sc(C)cn23)=C(C)C1=O`, the TGI was determined as 32.8 µM.

`O=C(CN1CCCCC1)Nc1ccc2sc3ccccc3c(=O)c2n1`: the TGI amounted to 28.7 µM.

For the compound `CC(C)=CCC/C(C)=C/CC/C(C)=C/CC/C(C)=C/C=C/C=C(\C)CC/C=C(\C)CC/C=C(\C)CCC=C(C)C`, the TGI was > 100 µM.

Consider `C=C(C)C1=CCC[C@]2(C1)N=C(OC)[C@@H](C(C)C)N=C2OC`, for which the TGI is > 100 µM.

The values above are taken from PubChem BioAssay (NCI).
